These results are taken from ChEMBL document CHEMBL5512632, “Unlocking the potential of 1,4-naphthoquinones: A comprehensive review of their anticancer properties” (Eur J Med Chem, 2024).

Assay [1] has as its system SCC-4. Put plainly: Cytotoxicity against human SCC-4 cells assessed as inhibition of cell growth incubated for 48 hrs by MTT reagent based spectrophotometric analysis. Format: functional. The note with it: SCC-4, 48 h. In general terms: Tetrazolium assays rely on reduction of a dye to a coloured formazan, in cell work by metabolically active cells.
Assay [2] has as its system SCC-9. The assay is described as follows: Cytotoxicity against human SCC-9 cells assessed as inhibition of cell growth incubated for 48 hrs by MTT reagent based spectrophotometric analysis. Format: functional. The note with it: SCC-9, 48 h.
Assay [3] relates to SCC-25. Put plainly: Cytotoxicity against human SCC-25 cells assessed as inhibition of cell growth incubated for 48 hrs by MTT reagent based spectrophotometric analysis. Format: functional. The note with it: SCC-25, 48 h.
Assay [4] deals with A549. Put plainly: Antiproliferative activity against human A549 cells assessed as inhibition of cell growth by MTT assay. Format: functional, cell-based.
Assay [5] concerns HepG2. The assay is described as follows: Cytotoxicity against human HepG2 cells assessed as inhibition of cell growth incubated for 24 hrs by MTT reagent based microplate reader assay. Format: functional. Particulars: HepG2, 24 h.
The subject of assay [6] is Huh-7. Put plainly: Cytotoxicity against human Huh-7 cells assessed as inhibition of cell growth incubated for 24 hrs by MTT reagent based microplate reader assay. Format: functional. The note with it: Huh-7, 24 h.
The subject of assay [7] is Hep 3B2. Put plainly: Cytotoxicity against human Hep3B cells assessed as inhibition of cell growth incubated for 24 hrs by MTT reagent based microplate reader assay. Format: functional.
Assay [8] deals with A549. Put plainly: Cytotoxicity against human A549 cells assessed as reduction in cell viability incubated for 24 hrs by MTT assay. Format: functional, cell-based. Particulars: A549, 24 h.
Assay [9] relates to MCF7. The assay is described as follows: Cytotoxicity against human MCF7 cells assessed as reduction in cell viability incubated for 24 hrs by MTT assay. The format is functional, cell-based. Particulars: MCF7, 24 h.
The test system of assay [10] is HeLa. Put plainly: Cytotoxicity against human HeLa cells assessed as reduction in cell viability incubated for 24 hrs by MTT assay. The format is functional, cell-based.
Assay [11] relates to SW480. Put plainly: Cytotoxicity against human SW480 cells assessed as inhibition of cell growth incubated upto 72 hrs by MTT assay. The format is functional, cell-based. The note with it: SW480, 72 h.
Assay [12] deals with HL-60. The assay is described as follows: Cytotoxicity against human HL-60 cells assessed as inhibition of cell growth incubated upto 72 hrs by MTT assay. Format: functional, cell-based. Particulars: HL-60, 72 h.
The test system of assay [13] is MCF7. Put plainly: Cytotoxicity against human MCF7 cells assessed as inhibition of cell growth incubated upto 72 hrs by MTT assay. The format is functional, cell-based. Particulars: MCF7, 72 h.
The test system of assay [14] is HepG2. Put plainly: Cytotoxicity against human HepG2 cells assessed as inhibition of cell growth incubated upto 72 hrs by MTT assay. The note with it: HepG2, 72 h. Format: functional, cell-based.
The subject of assay [15] is HT-29. Put plainly: Cytotoxicity against human HT-29 cells assessed as inhibition of cell growth incubated upto 72 hrs by MTT assay. Format: functional, cell-based. The note with it: HT-29, 72 h.
For assay [16], the system named is OVCAR-8. Put plainly: Cytotoxicity against human OVCAR-8 cells incubated for 72 hrs by MTT assay. Format: functional, cell-based. The note with it: OVCAR-8, 72 h.
Assay [17] can be described thus: Cytotoxicity against human NCI-H358M cells incubated for 72 hrs by MTT assay. Format: functional, cell-based.
For assay [18], the system named is PC-3M. Put plainly: Cytotoxicity against human PC-3M cells incubated for 72 hrs by MTT assay. Format: functional, cell-based.
Assay [19] concerns DU-145. The assay is described as follows: Cytotoxicity against human DU-145 cells incubated for 48 hrs by MTT assay. Format: functional, cell-based. Particulars: DU-145, 48 h.
Assay [20] deals with MCF7. The assay is described as follows: Cytotoxicity against human MCF7 cells incubated for 48 hrs by MTT assay. Format: functional, cell-based. The note with it: MCF7, 48 h.
The subject of assay [21] is MCF7. The assay is described as follows: Cytotoxicity against human MCF7 cells assessed as reduction in cell growth incubated for 48 hrs by MTT assay. Format: functional, cell-based. The note with it: MCF7, 48 h.
For assay [22], the system named is T-24. The assay is described as follows: Cytotoxicity against human T24 cells assessed as reduction in cell growth incubated for 48 hrs by MTT assay. Format: functional, cell-based. The note with it: T-24, 48 h.
The subject of assay [23] is DU-145. The assay is described as follows: Cytotoxicity against human DU-145 cells assessed as reduction in cell growth incubated for 48 hrs by MTT assay. Format: functional, cell-based. The note with it: DU-145, 48 h.
The test system of assay [24] is MCF7. Put plainly: Cytotoxicity against human MCF7 cells incubated for 24 hrs by MTT assay. Format: functional, cell-based. Particulars: MCF7, 24 h.
Assay [25] has as its system MCF7. The assay is described as follows: Antiproliferative activity against human MCF7 cells assessed as inhibition of cell growth incubated upto 120 hrs by MTS assay. The format is functional, cell-based. The note with it: MCF7, 120 h.
Assay [26] deals with MDA-MB-231. The assay is described as follows: Antiproliferative activity against human MDA-MB-231 cells assessed as inhibition of cell growth incubated upto 120 hrs by MTS assay. Format: functional, cell-based. The note with it: MDA-MB-231, 120 h.
The test system of assay [27] is HCC1806. Put plainly: Antiproliferative activity against human HCC1806 cells assessed as inhibition of cell growth incubated upto 120 hrs by MTS assay. The format is functional, cell-based. Particulars: HCC1806, 120 h.
Assay [28] has as its system Hs-578T. The assay is described as follows: Antiproliferative activity against human Hs-578T cells assessed as inhibition of cell growth incubated upto 120 hrs by MTS assay. The format is functional, cell-based.
For assay [29], the system named is HeLa. The assay is described as follows: Cytotoxicity against human HeLa cells incubated for 48 hrs by MTT microplate reader assay. Format: functional, cell-based.
The test system of assay [30] is AGS. The assay is described as follows: Cytotoxicity against human AGS cells incubated for 72 hrs by MTT assay. Format: functional, cell-based.
In assay [31] the test system is SK-MES-1. The assay is described as follows: Cytotoxicity against human SK-MES-1 cells incubated for 72 hrs by MTT assay. The format is functional, cell-based. Particulars: SK-MES-1, 72 h.
For assay [32], the system named is J82. Put plainly: Cytotoxicity against human J82 cells incubated for 72 hrs by MTT assay. Format: functional, cell-based. Particulars: J82, 72 h.
Assay [33] relates to GBM. The assay is described as follows: Cytotoxicity against human GBM cells assessed as inhibition of cell growth incubated for 72 hrs by MTT assay. Format: functional, cell-based.
Assay [34] deals with U-87 MG. The assay is described as follows: Cytotoxicity against human U87 cells assessed as inhibition of cell growth incubated for 72 hrs by MTT assay. Format: functional, cell-based, U-87MG ATCC.
For assay [35], the system named is HL-60. Put plainly: Cytotoxicity against human HL-60 cells assessed as reduction in cell growth incubated for 48 hrs by MTT assay. Format: functional, cell-based. Particulars: HL-60, 48 h.
Assay [36] has as its system A549. The assay is described as follows: Cytotoxicity against human A549 cells incubated for 20 hrs by MTT assay. The format is functional, cell-based. Particulars: A549, 20 h.
Assay [37] concerns SCC-25. Put plainly: Cytotoxicity against human SCC-25 cells incubated for 48 hrs by MTT reagent based spectrophotometric analysis. The format is functional, cell-based. The note with it: SCC-25, 48 h.
For assay [38], the system named is HCT-116. The assay is described as follows: Antiproliferative activity against human HCT-116 cells assessed as inhibition of cell growth incubated for 24 hrs by BrdU incorporation assay. The note with it: HCT-116, 24 h. Format: functional, cell-based.
The subject of assay [39] is HT-29. Put plainly: Antiproliferative activity against human HT-29 cells assessed as inhibition of cell growth incubated for 24 hrs by BrdU incorporation assay. Particulars: HT-29, 24 h. Format: functional, cell-based. On the technique in general: Uptake of a labelled nucleoside into DNA is a usual measure of proliferation.
The test system of assay [40] is HeLa. Put plainly: Cytotoxicity against human HeLa cells incubated for 48 hrs by MTT assay. Format: functional, cell-based.
In assay [41] the test system is HepG2. Put plainly: Cytotoxicity against human HepG2 cells incubated for 48 hrs by MTT assay. The format is functional, cell-based. The note with it: HepG2, 48 h.
Assay [42] has as its system CCRF-CEM. Put plainly: Antiproliferative activity against human CCRF-CEM cells assessed as inhibition of cell growth incubated for 72 hrs by resazurin assay. Format: functional, cell-based. On the technique in general: The colour change of resazurin is a common sign of viable cells or microbes.
Assay [43] has as its system ADR5000 cell line. The assay is described as follows: Antiproliferative activity against human ADR5000 cell line assessed as inhibition of cell growth incubated for 72 hrs by resazurin assay. Format: functional, cell-based. Particulars: ADR5000, 72 h.

In brackets after ≈: the same amount, converted by molar mass.

A word on the IC50: it is the point on the concentration scale where inhibition reaches its midpoint. Take `COC(=O)N(Cc1ccccc1)C(C1=C(O)C(=O)c2ccccc2C1=O)c1ccc(Cl)cc1` (stereo not drawn): the IC50 in assay [1] came out at 92.8 µM; in assay [2], 56.2 µM; in assay [3], 87.3 µM.

Take `CC(=O)NCC1=C(Nc2ccc(O)c(C)c2)C(=O)c2ccccc2C1=O`: the 50% inhibitory concentration (IC50) in assay [4] came to 3 µg/mL (≈ 8.56 µM).

Consider `CCCS(=O)(=O)C12OC1C(=O)c1c(OC)ccc(OC)c1C2=O` (stereo not drawn), for which the IC50 was 5.26 µM in assay [5], 7.68 µM in assay [6] and 3.89 µM in assay [7].

Turning to `O=C(Nc1ccc(S(=O)(=O)c2ccc(NC3=C(Sc4ccccc4)C(=O)c4ccccc4C3=O)cc2)cc1)c1cc(Cl)cc(Cl)c1`, the half-inhibitory concentration (IC50) in assay [8] came out at 1.98 µM; in [9] it was 0.05 µM; in assay [10], 1.17 µM.

Take `CC(C)=CCC/C(C)=C/CC/C(C)=C/CC1=C(O)C(=O)c2ccccc2C1=O`: the 50% inhibitory concentration (IC50) in [11] was 2.02 µM; in assay [12] it was 5.41 µM; in [13], 47 µM; in assay [14], 14 µM; in [15] it was 1.99 µM.

As for `CC1(O)CCC(C#CC2=C(C#CC3CCC(C)(O)CC3)C(=O)c3ccccc3C2=O)CC1` (stereo not drawn), the concentration for half-maximal inhibition (IC50) came to 2.28 µM in [16], 2.98 µM in assay [17] and 4.28 µM in [18].

With `COc1cc(N)cc(OC)c1C1=C(C(C)=O)C(=O)c2ccccc2C1=O`, the IC50 turned out to be 12.3 µM in assay [19] and 21.2 µM in assay [20].

A word on the EC50: it is the concentration that produces a half-maximal response. A low value points to an effect from little substance. Take `O=C(C1=C(Nc2ccccc2)C(=O)c2ccccc2C1=O)c1ccco1`: the results for the IC50 in assay [21], in [22] and in assay [23] were 4.64 µM, 11.7 µM and 5.45 µM, respectively. Moreover, the midpoint of the response in [24], the EC50, lay at 15 µM.

As for `COc1ccc(OC)c2c1C(=O)C(Cl)=C(Cl)C2=O`, the IC50 worked out at 5.5 µM in assay [25], 3.28 µM in assay [26], 2.68 µM in assay [27] and 1.63 µM in [28].

`COc1ccc(C(C2=C(O)C(=O)c3ccccc3C2=O)c2c(C)[nH]n(-c3ccccc3)c2=O)c(O)c1` (stereo not drawn) yielded an IC50 in [29] of 2.9 µM.

For the molecule `CCCCCC(=O)C1=C(/C(C(=O)OC)=C(\C)NC(Cc2c[nH]c3ccccc23)C(=O)OC)C(=O)c2ccccc2C1=O` (stereo not drawn), the 50% inhibitory concentration (IC50) in assay [30] worked out at 9.3 µM; in assay [31], 5.5 µM; in assay [32], 4.5 µM.

As to `CC(C)=CCC1=C(NCCCCN(CCCN)Cc2ccccc2)C(=O)c2ccccc2C1=O`, the values for the IC50 in assay [33] and in assay [34] were 6.6 µM and 4.3 µM, respectively.

As for `CC(=O)N[C@H]1[C@H](OC2=C(CC=C(C)C)C(=O)c3ccccc3C2=O)O[C@H](COC(C)=O)[C@@H](OC(C)=O)[C@@H]1OC(C)=O`, in assay [35], the IC50 turned out to be 5.3 µM.

`O=C1C(Cl)=C(Nc2ccccc2)C(=O)c2ccccc21` displayed a half-maximal inhibitory concentration (IC50) in [36] of 5.8 µM.

Take `CC(C)/C=C/C1=C(OCc2cn(-c3cccc(Cl)c3)nn2)C(=O)c2ccccc2C1=O`: in assay [37], the half-inhibitory concentration (IC50) stood at 9.81 µM.

As for `O=C1C(Cl)=C(Oc2ccc(-c3oc4cc(O)cc(O)c4c(=O)c3O)cc2O)C(=O)c2ccccc21`, the figures for the half-inhibitory concentration (IC50) in [38] and in assay [39] were 10.3 µM and 23.2 µM, respectively.

`C[C@@H](CC[C@H]1O[C@H]2C[C@H]3[C@@H]4CC=C5C[C@@H](O)CC[C@]5(C)[C@H]4CC[C@]3(C)[C@H]2[C@@H]1C)COC1=C(Cl)C(=O)c2ccccc2C1=O`: the IC50 in assay [40] came out at 14.1 µM; in [41] it was 1.24 µM.

With `CCOc1ccc(NC(=O)C2=C(SC(C)(C)C)C(=O)c3ccccc3C2=O)cc1`, the figures for the IC50 in assay [42] and in assay [43] were 1.9 µM and 2 µM, respectively.
